# Assay results reported in PMC4686834, “Autocrine selection of a GLP-1R G-protein biased agonist with potent antidiabetic effects” (Nature Communications, 2015).
# *1 amine or outer side, *2 acyl side, *3 side chain or, on linkers, in order; H or OH if unused. Where a SMILES comes first, the peptide text is derived from it. Bridges are numbered along the chain shown (N, C = ends). [ ]: non-standard residue; d: D form. The star is where a group is joined. Leu(3R-OH,Nα-propionyl) = CCC(=O)N[C@H](C(=O)*)[C@H](O)C(C)C; X1 = CC(C)[C@@H](O[*:3])[C@H](N[*:1])C(=O)[*:2]; NMeT = CN[C@H](C(=O)O)[C@@H](C)O; dPhLac = O=C(O)[C@H](O)Cc1ccccc1; NMeA = CN[C@@H](C)C(=O)O; NMeDha = C=C(NC)C(=O)O
# Experiments:
# human GLP-1R [1] = target: T1, human GLP-1R (Homo sapiens, UniProt P43220); assay: Intracellular calcium mobilization (Gαq), FLIPR, CHO cells expressing the human GLP-1R; assay type: cell-based; details: 1 μM FR900359 in loading medium; CHO-GLP-1R expressing cells
# T1 construct: expressed in transfected cells
# Description: The stable CHO cell line (generated in-house using CHO-K1 cell line purchased from ATCC) expressing a functional human GLP-1R was cultured in F12 medium (Gibco) supplemented with 10% fetal bovine serum and 500 μg ml^−1 geneticin.
# human GLP-1R [2] = assay: Ligand bias, equiactive comparison with Ex4 as reference; assay type: cell-based
# T1 sequence (P43220 24-463): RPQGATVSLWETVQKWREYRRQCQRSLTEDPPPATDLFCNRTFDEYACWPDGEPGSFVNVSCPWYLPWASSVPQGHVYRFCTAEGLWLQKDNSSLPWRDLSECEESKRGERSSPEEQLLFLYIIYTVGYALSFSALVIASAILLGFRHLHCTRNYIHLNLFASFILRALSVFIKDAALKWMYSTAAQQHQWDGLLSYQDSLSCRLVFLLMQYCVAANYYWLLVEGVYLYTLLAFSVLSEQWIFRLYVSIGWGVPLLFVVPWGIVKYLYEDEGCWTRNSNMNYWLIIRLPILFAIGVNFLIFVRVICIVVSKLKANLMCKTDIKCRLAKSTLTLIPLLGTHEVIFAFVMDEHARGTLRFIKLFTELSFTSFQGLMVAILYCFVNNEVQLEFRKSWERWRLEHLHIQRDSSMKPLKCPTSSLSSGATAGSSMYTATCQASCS
SMILES,Inhibition of P5-induced increase in [Ca2+]i (human GLP-1R [1]),Ligand bias (in words) (human GLP-1R [2]),"Bias factor (β), Gq vs β-arrestin 1 (human GLP-1R [2]; mean ± s.d.)","Bias factor (β), Gq vs β-arrestin 2 (human GLP-1R [2]; mean ± s.d.)","Bias factor (β), Gs vs β-arrestin 2 (human GLP-1R [2]; mean ± s.d.)","Bias factor (β), Gs vs β-arrestin 1 (human GLP-1R [2]; mean ± s.d. of a typical experiment performed three times)"
"C=C1C(=O)N[C@@H](C)C(=O)N(C)[C@@H](C)C(=O)N[C@@H]([C@H](OC(=O)[C@@H](NC(=O)CC)[C@H](O)C(C)C)C(C)C)C(=O)N(C)[C@@H]([C@@H](C)OC)C(=O)O[C@H](C(C)C)[C@H](NC(C)=O)C(=O)O[C@H](Cc2ccccc2)C(=O)N1C [FR900359] (Ac-[X1][dPhLac][NMeDha]A[NMeA][X1](Leu(3R-OH,Nα-propionyl))[NMeT](Me); ester 1-C)",inhibited,,,,,
"CC[C@H](C)[C@H](NC(=O)[C@H](Cc1ccccc1)NC(=O)[C@H](CCC(=O)O)NC(=O)[C@H](CCCCN)NC(=O)[C@H](C)NC(=O)[C@H](C)NC(=O)[C@H](CCC(N)=O)NC(=O)CNC(=O)[C@H](CCC(=O)O)NC(=O)[C@H](CC(C)C)NC(=O)[C@H](Cc1ccc(O)cc1)NC(=O)[C@H](CO)NC(=O)[C@H](CO)NC(=O)[C@@H](NC(=O)[C@H](CC(=O)O)NC(=O)[C@H](CO)NC(=O)[C@@H](NC(=O)[C@H](Cc1ccccc1)NC(=O)[C@@H](NC(=O)CNC(=O)[C@H](CCC(=O)O)NC(=O)[C@H](C)NC(=O)[C@@H](N)Cc1c[nH]cn1)[C@@H](C)O)[C@@H](C)O)C(C)C)C(=O)N[C@@H](C)C(=O)N[C@@H](Cc1c[nH]c2ccccc12)C(=O)N[C@@H](CC(C)C)C(=O)N[C@H](C(=O)N[C@@H](CCCCN)C(=O)NCC(=O)N[C@@H](CCCNC(=N)N)C(N)=O)C(C)C [GLP-1, glucagon-like peptide-1]",,did not demonstrate detectable bias,0.16 ± 0.13,0.2 ± 0.08,-0.04 ± 0.11,-0.08 ± 0.11
